These are literature values, as cited in patent US7642235B2, “Macrocyclic peptides active against the hepatitis C virus” (Boehringer Ingelheim International GmbH, priority 2003, dated 2010).

For the data set, the system named is hepatitis C virus. The note with it: two day clinical trial; Nature (2003) 426, p.186-189.

Structures are written as SMILES.

On to `COc1ccc2c(O[C@@H]3C[C@H]4C(=O)N[C@]5(C(=O)O)C[C@H]5/C=C\CCCCC[C@H](NC(=O)OC5CCCC5)C(=O)N4C3)cc(-c3csc(NC(C)C)n3)nc2c1` [BILN 2061], for which the “viral loads in patients infected with the hepatitis C virus” value is given as “effective in rapidly reducing viral loads”.
